The target of this assay is Protein kinase C beta type (Mus musculus) (UniProt P68404). The assay is described as follows: Inhibition of PKCbeta in mouse B cells assessed as reduction in IgM-stimulated cell proliferation.

The structures appear in SMILES notation.

Sequence of Protein kinase C beta type (Mus musculus) (P68404 whole entry, looked up): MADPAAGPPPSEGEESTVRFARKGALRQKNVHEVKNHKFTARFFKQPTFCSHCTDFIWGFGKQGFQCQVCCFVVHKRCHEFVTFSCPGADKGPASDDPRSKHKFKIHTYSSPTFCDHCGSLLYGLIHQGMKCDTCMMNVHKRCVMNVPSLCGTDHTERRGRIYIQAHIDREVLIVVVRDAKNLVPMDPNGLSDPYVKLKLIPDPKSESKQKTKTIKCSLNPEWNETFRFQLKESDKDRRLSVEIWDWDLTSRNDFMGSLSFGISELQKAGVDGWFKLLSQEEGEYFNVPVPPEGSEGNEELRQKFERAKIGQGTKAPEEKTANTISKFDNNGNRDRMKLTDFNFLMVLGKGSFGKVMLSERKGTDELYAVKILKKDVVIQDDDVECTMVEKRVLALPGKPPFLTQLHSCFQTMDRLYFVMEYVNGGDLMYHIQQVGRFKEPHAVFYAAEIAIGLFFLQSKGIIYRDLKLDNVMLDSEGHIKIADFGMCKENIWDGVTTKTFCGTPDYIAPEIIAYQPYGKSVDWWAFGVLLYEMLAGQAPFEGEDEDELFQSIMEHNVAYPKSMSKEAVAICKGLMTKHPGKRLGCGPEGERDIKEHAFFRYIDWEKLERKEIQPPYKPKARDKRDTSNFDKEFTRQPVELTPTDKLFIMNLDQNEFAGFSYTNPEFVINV

As for `CN(C)Cc1ccc2ccc(Cl)c(C3=C(c4cn(C)c5ccccc45)C(=O)NC3=O)c2c1`, the IC50 was determined as 296 nM.

Turning to `CN1CCN(c2nc(C3=C(c4c[nH]c5ccccc45)C(=O)NC3=O)c3ccccc3n2)CC1` [Sotrastaurin], the IC50 was 234 nM.

For the origin of these results see BindingDB's records for doi:10.1016/j.bmcl.2017.01.038 (Novartis Institutes For Biomedical Research, 2017).
